This passage reports IC50 results from patent US8664257B2, “Oxygen-substituted 3-heteroaroylamino-propionic acid derivatives and their use as pharmaceuticals” (Sanofi, priority 2010, dated 2014).

pIC50: −log10 of the molar value. Some results are limits rather than exact numbers.

The first assay concerns the target T1, Recombinant human cathepsin A (Homo sapiens, UniProt P10619).
T1 construct: Recombinant human cathepsin A (residues 29-480, with a C-terminal 10-His tag); 10-His (C); purchased R&D Systems 1049-SE
T1 sequence (P10619 29-312 limits assumed): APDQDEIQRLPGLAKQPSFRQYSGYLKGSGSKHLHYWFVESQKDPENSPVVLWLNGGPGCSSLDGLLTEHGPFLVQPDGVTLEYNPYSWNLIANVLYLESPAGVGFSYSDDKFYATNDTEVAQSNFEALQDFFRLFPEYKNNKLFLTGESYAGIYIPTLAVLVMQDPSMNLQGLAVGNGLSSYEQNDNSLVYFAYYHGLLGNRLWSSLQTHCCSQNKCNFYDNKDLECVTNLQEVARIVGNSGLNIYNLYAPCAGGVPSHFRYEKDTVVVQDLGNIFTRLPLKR
T1 sequence (P10619 327-480 limits assumed): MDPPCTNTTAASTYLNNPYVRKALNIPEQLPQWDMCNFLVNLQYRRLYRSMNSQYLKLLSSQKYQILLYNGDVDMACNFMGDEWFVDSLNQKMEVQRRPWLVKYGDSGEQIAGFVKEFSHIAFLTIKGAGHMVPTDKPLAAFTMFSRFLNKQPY
In words: Cathepsin A inhibitory activity. Type of assay: biochemical. To be noted: pharmacological test "Cathepsin A inhibitory activity"; IC50 given as class A/B/C; read-out: Activity (2): Cathepsin A inhibitory activity, IC50 class. The method in brief: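 Read-out was microfluidic separation of cleaved vs. uncleaved Bodipy FL-bradykinin (2 μM), giving turnover, % inhibition and IC50. Compound and 833 ng/ml enzyme met for 15 min RT in pH 5.5 MES/DTT before substrate (15 min RT). The 29-480 His-tagged human enzyme was first activated by cathepsin L, then E-64 (10 μM).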
`O=C(O)CC(NC(=O)c1cc(O)n(-c2cccc(Cl)c2)n1)c1cccc(Cl)c1F` (centres unmarked) [Example 262]: the pIC50 was 6.00 to 7.00.
Same read-out and setting: the figure for `O=C(O)CC(NC(=O)c1cc(O)n(-c2ccc(F)cc2F)n1)c1ccc(-c2ccc(F)cc2)cc1` (centres unmarked) [Example 202] is 6.00 to 7.00; for `Cc1cc(F)ccc1C(CC(=O)O)NC(=O)c1cc(O)n(-c2ccc(F)cc2F)n1` (centres unmarked) [Example 196] it is > 7.00; for `N#Cc1cccc([C@H](CC(=O)O)NC(=O)c2cc(O)n(-c3ccccc3)n2)c1` [Example 160] it is 4.52 to 6.00.

Staying with this assay, now noted: read-out: Activity (2): Cathepsin A inhibitory activity (IC50 class).
In the case of `COc1cc(C(=O)NC(CC(=O)O)c2ccc(F)cc2)nn1-c1ccccc1F` (centres unmarked) [Example 678], the pIC50 is 6.00 to 7.00.
Still for that read-out and setting: the figure for `Cc1ccccc1[C@H](CC(=O)O)NC(=O)c1cc(OCC(C)(O)C(C)C)n(-c2ccccc2F)n1` (stereo partly drawn) [Example 770, (S)-3-{[1-(2-Fluoro-phenyl)-5-(2-hydroxy-2,3-dimethyl-butoxy)-1H-pyrazole-3-carbonyl]-amino}-3-o-tolyl-propionic acid] is > 7.00.
In the case of `COc1cc(C(=O)N[C@@H](CC(=O)O)c2ccccc2C)nn1C(C)(C)C` [Example 611], the pIC50 is 6.00 to 7.00.
On the same count and under the same terms, the same measure for `O=C(O)C[C@H](NC(=O)c1cc(OCC2CC2)n(-c2ccccc2F)n1)c1ccccc1C(F)(F)F` [Example 701]: 6.00 to 7.00; for `COc1cc(C(=O)N[C@@H](CC(=O)O)c2ccc(C#N)cc2)nn1-c1ccccc1F` [Example 668]: 6.00 to 7.00; for `CCOc1cc(C(=O)N[C@@H](CC(=O)O)c2ccccc2)nn1-c1ccccc1F` [Example 707]: 6.00 to 7.00.
As to `COc1cccc([C@H](CC(=O)O)NC(=O)c2cc(OC[C@@](C)(O)C(C)C)n(-c3ccccc3F)n2)c1OC` [Example 769], the pIC50 was > 7.00.
Turning to `CCOc1cc(C(=O)NC(CC(=O)O)c2ccc(C)cc2C)nn1-c1ccccc1Cl` (centres unmarked) [Example 728], the pIC50 was > 7.00.
Regarding `COc1c(Cl)c(C(=O)N[C@@H](CC(=O)O)c2ccccc2C)nn1-c1ccccc1F` [Example 593], the pIC50 is 6.00 to 7.00.
In the case of `Cc1nc(COc2cc(C(=O)N[C@@H](CC(=O)O)c3ccccc3C)nn2-c2ccccc2F)cs1` [Example 646], the pIC50 is > 7.00.

The assay is the same for the next values; noted with them: read-out: Activity (2): Cathepsin A inhibitory activity, IC50 class.
With `O=C(O)CC(NC(=O)c1cc(O)n(-c2ccccc2Cl)n1)c1cccc(Cl)c1` (centres unmarked) [Example 391], the pIC50 was 6.00 to 7.00.
As to `CC(C)[C@](C)(O)COc1cc(C(=O)NCC(C(=O)O)c2ccccc2)nn1-c1ccccc1F` (stereo partly drawn) [Example 830, 3-{[1-(2-Fluoro-phenyl)-5-((S)-2-hydroxy-2,3-dimethyl-butoxy)-1H-pyrazole-3-carbonyl]-amino}-2-phenyl-propionic acid], the pIC50 is 6.00 to 7.00.
Turning to `Cc1cccc([C@H](CC(=O)O)NC(=O)c2cc(O)n(-c3cccc(F)c3)n2)c1` [Example 317], the pIC50 was 6.00 to 7.00.
Same read-out and setting: the figure for `COc1ccccc1[C@H](CC(=O)O)NC(=O)c1cc(O)n(-c2ccccc2Cl)n1` [Example 111] is 6.00 to 7.00; for `CC(C)(C)[C@@](C)(O)COc1cc(C(=O)NC(CC(=O)O)C2CCCCC2)nn1-c1ccccc1F` (stereo partly drawn) [Example 820, 3-Cyclohexyl-3-{[1-(2-fluoro-phenyl)-5-((R)-2-hydroxy-2,3,3-trimethyl-butoxy)-1H-pyrazole-3-carbonyl]-amino}-propionic acid] it is > 7.00.
In the case of `O=C(O)CC(NC(=O)c1cc(O)n(-c2ccccc2)n1)c1ccc(F)cc1` (centres unmarked) [Example 61], the pIC50 was 4.52 to 6.00.
Turning to `O=C(O)CC(NC(=O)c1cc(O)n(-c2ccc(Cl)cc2)n1)c1ccc(Cl)cc1F` (centres unmarked) [Example 286], the pIC50 was 4.52 to 6.00.
For the compound `COc1ccc(C(CC(=O)O)NC(=O)c2cc(O)n(-c3ccc(F)cc3)n2)c(Cl)c1` (centres unmarked) [Example 345], the pIC50 was 6.00 to 7.00.
On the same count and under the same terms, the figure for `CC(C)CC(CC(=O)O)NC(=O)c1cc(OCC(C)(O)C(C)C)n(-c2ccccc2F)n1` (centres unmarked) [Example 814, 3-{[1-(2-Fluoro-phenyl)-5-(2-hydroxy-2,3-dimethyl-butoxy)-1H-pyrazole-3-carbonyl]-amino}-5-methyl-hexanoic acid] is > 7.00; for `Cc1ccccc1[C@H](CC(=O)O)NC(=O)c1cc(OC[C@@](C)(O)C(C)C)n(-c2ccccc2F)n1` [Example 870, (S)-3-{[1-(2-Fluoro-phenyl)-5-((S)-2-hydroxy-2,3-dimethyl-butoxy)-1H-pyrazole-3-carbonyl]-amino}-3-o-tolyl-propionic acid] it is > 7.00.
On the same count and under the same terms, the figure for `Cc1ccccc1[C@@H](CC(=O)O)NC(=O)c1cc(O)n(-c2ccccc2)n1` [Example 83] is 4.52 to 6.00; for `N#Cc1cccc([C@H](CC(=O)O)NC(=O)c2cc(O)n(-c3cccc(F)c3)n2)c1` [Example 303] it is 4.52 to 6.00.

The assay is the same for the next values; noted with them: recombinant human cathepsin A 833 ng/ml, Bodipy FL-labeled bradykinin 2 μM, pH 5.5; read-out: CATH-A IC50.
As to `O=C(O)CC(NC(=O)c1cc(O)n(-c2cccc(Cl)c2)n1)c1cc(F)ccc1F` (centres unmarked) [Example 465, 3-{[1-(3-Chloro-phenyl)-5-hydroxy-1H-pyrazole-3-carbonyl]-amino}-3-(2,5-difluoro-phenyl)-propionic acid], the pIC50 is 6.13.
Turning to `O=C(O)CC(NC(=O)c1cc(O)n(-c2ccccc2)n1)c1cc(F)ccc1Cl` (centres unmarked) [Example 495, 3-(2-Chloro-5-fluoro-phenyl)-3-[(5-hydroxy-1-phenyl-1H-pyrazole-3-carbonyl)-amino]-propionic acid], the pIC50 is 6.67.
As for `Cc1ccccc1[C@H](CC(=O)O)NC(=O)c1cc(OC[C@@](C)(O)C(C)C)n(-c2ccccc2F)n1` [Example 870, (S)-3-{[1-(2-Fluoro-phenyl)-5-((S)-2-hydroxy-2,3-dimethyl-butoxy)-1H-pyrazole-3-carbonyl]-amino}-3-o-tolyl-propionic acid], the pIC50 is 7.12.
In the case of `O=C(O)CC(NC(=O)c1cc(O)n(-c2ccc(F)cc2)n1)c1cc(Cl)ccc1Cl` (centres unmarked) [Example 493, 3-(2,5-Dichloro-phenyl)-3-{[1-(4-fluoro-phenyl)-5-hydroxy-1H-pyrazole-3-carbonyl]-amino}-propionic acid], the pIC50 was 6.61.

Still in this assay, the particulars now being: recombinant human cathepsin A; read-out: Activity (2): Cathepsin A inhibitory activity, IC50 class.
Turning to `COc1ccc(C(CC(=O)O)NC(=O)c2cc(O)n(-c3cccc(F)c3)n2)c(C)c1` (centres unmarked) [Example 426], the pIC50 was 6.00 to 7.00.
For the compound `Cc1ccc(F)cc1C(CC(=O)O)NC(=O)c1cc(O)n(-c2cccc(F)c2)n1` (centres unmarked) [Example 487], the pIC50 is 6.00 to 7.00.
On the same count and under the same terms, the figure for `O=C(O)CC(NC(=O)c1cc(O)n(-c2ccccc2F)n1)c1ccc(-c2ccccn2)cc1` (centres unmarked) [Example 481] is 6.00 to 7.00; for `O=C(O)CC(NC(=O)c1cc(O)n(-c2cccc(Cl)c2)n1)c1cc(F)ccc1F` (centres unmarked) [Example 465, 3-{[1-(3-Chloro-phenyl)-5-hydroxy-1H-pyrazole-3-carbonyl]-amino}-3-(2,5-difluoro-phenyl)-propionic acid] it is 6.00 to 7.00; for `O=C(O)CC(NC(=O)c1cc(O)n(-c2ccccc2)n1)c1cc(F)ccc1Cl` (centres unmarked) [Example 495, 3-(2-Chloro-5-fluoro-phenyl)-3-[(5-hydroxy-1-phenyl-1H-pyrazole-3-carbonyl)-amino]-propionic acid] it is 6.00 to 7.00.
`COc1cc(C(=O)N[C@@H](CC(=O)NC2CCNC2=O)c2ccccc2C)nn1-c1ccccc1F` (stereo partly drawn) [Example 931, 1-(2-Fluoro-phenyl)-5-methoxy-1H-pyrazole-3-carboxylic acid [(S)-2-(2-oxo-pyrrolidin-3-ylcarbamoyl)-1-o-tolyl-ethyl]-amide]: the pIC50 is 4.52 to 6.00.
As to `O=C(O)CC(NC(=O)c1cc(O)n(-c2cccc(F)c2)n1)c1cccc2c1OC(F)(F)O2` (centres unmarked) [Example 484], the negative-log IC50 (pIC50) is 6.00 to 7.00.
Turning to `O=C(O)C[C@H](NC(=O)c1cc(O)n(-c2ccccc2F)n1)c1ccccc1Cl` [Example 519], the pIC50 was 6.00 to 7.00.
Take `O=C(O)C[C@H](NC(=O)c1cc(O)n(-c2cccc(Cl)c2)n1)c1ccc(F)cc1` [Example 411]: the pIC50 is 4.52 to 6.00.
The same measure, in the same setting: the same measure for `O=C(O)CC(NC(=O)c1cc(O)n(-c2ccc(F)cc2)n1)c1cc(Cl)ccc1Cl` (centres unmarked) [Example 493, 3-(2,5-Dichloro-phenyl)-3-{[1-(4-fluoro-phenyl)-5-hydroxy-1H-pyrazole-3-carbonyl]-amino}-propionic acid]: 6.00 to 7.00.
Take `COc1cc(C(=O)N[C@@H](CC(=O)N[C@H](CO)C(C)C)c2ccccc2C)nn1-c1ccccc1F` [Example 936, 1-(2-Fluoro-phenyl)-5-methoxy-1H-pyrazole-3-carboxylic acid [(S)-2-((S)-1-hydroxymethyl-2-methyl-propylcarbamoyl)-1-o-tolyl-ethyl]-amide]: the pIC50 was > 7.00.
